# Data from US20090062388A1, “Use of acetyl L-carnitine for the preparation of a medication for the preventive therapy for pain” (Sigma-Tau Industrie Farmaceutiche Riunite S.p.A., priority 2001, published 2009).
# Like-named read-outs stand apart in the source and are kept apart here.
# What was measured:
# mice = assay type: in vivo; conditions: Acetyl L-carnitine 100 mg/kg BID SC 7 days
# Procedure: The analgesia induced by the acetyl L-carnitine (100 mg/kg BID, SC for 7 days) was determined in presence of some antagonists of some neurotransmission systems deeply involved in the regulation of pain threshold, and in particular the naloxone (opioid antagonist), the CGP-35348 (GABAB antagonist) and the alpha-methyl-p-tyrosine (inhibitor of the synthesis of cathecolamines).
# In agreement with the standard procedures known by the person skilled in the art, the doses used for any antagonist were the minimum required to prevent the analgesia induced by morphine (7 mg/kg SC) (1, 100 e 200 mg/kg IP), baclofen (4 mg/kg SC) and amphetamine (1 mg/kg SC) (non-reported data) respectively.
# Male Swiss Webster mice = test: Hot-plate test (thermal stimulus), licking latency; assay type: in vivo
# Procedure: The first experiment was the hot-plate test.
# Male Swiss Webster mice weighing between 22 and 30 g were used.
# The test was carried out according to O'Callaghan and Holtzman in J. Pharmacol. Exp. Ther. 197: 533-537, 1976.
# According to this test, a stainless steel container is to be placed in a bain-marie at a temperature of 52.5° C.
# The mouse was removed from the hot plate immediately upon the first sign of painful stimulus. The maximum latency time registered on the hot plate was 45 seconds.
# The values of analgesia were determined at 15 minute-intervals.
structure (smiles),measurement,setting,value
"CC(=O)O[C@H](CC(=O)[O-])C[N+](C)(C)C [Acetyl L-carnitine, acetyl L-carnitine]",Hot plate Licking latency,"mice; pre-treat. Alpha-M-p-T 200 mg/kg, after treatment 15 min",22.5 ± 2.0 s
same,Hot plate Licking latency,"mice; pre-treat. Alpha-M-p-T 200 mg/kg, after treatment 30 min",21.5 ± 1.7 s
same,Hot plate Licking latency,"mice; pre-treat. Alpha-M-p-T 200 mg/kg, after treatment 45 min",21.6 ± 1.5^ sec
same,Hot plate Licking latency,"mice; pre-treat. Alpha-M-p-T 200 mg/kg, before treatment",22.0 ± 1.3 s
same,Hot plate Licking latency,"mice; pre-treat. Atropine 5 mg/kg, after treatment 15 min",11.4 ± 1.7° sec
same,Hot plate Licking latency,"mice; pre-treat. Atropine 5 mg/kg, after treatment 30 min",12.6 ± 1.9° sec
same,Hot plate Licking latency,"mice; pre-treat. Atropine 5 mg/kg, after treatment 45 min",12.8 ± 1.3° sec
same,Hot plate Licking latency,"mice; pre-treat. Atropine 5 mg/kg, before treatment",21.2 ± 1.0^ sec
same,Hot plate Licking latency,"mice; pre-treat. CGP 35348 100 mg/kg, after treatment 15 min",21.1 ± 1.2^ sec
same,Hot plate Licking latency,"mice; pre-treat. CGP 35348 100 mg/kg, after treatment 30 min",21.0 ± 2.1^ sec
same,Hot plate Licking latency,"mice; pre-treat. CGP 35348 100 mg/kg, after treatment 45 min",20.3 ± 1.9^ sec
same,Hot plate Licking latency,"mice; pre-treat. CGP 35348 100 mg/kg, before treatment",22.1 ± 0.7 s
same,Hot plate Licking latency,"mice; pre-treat. HC-3 1 μg ICV, after treatment 15 min",14.6 ± 1.3° sec
same,Hot plate Licking latency,"mice; pre-treat. HC-3 1 μg ICV, after treatment 30 min",14.0 ± 1.8° sec
same,Hot plate Licking latency,"mice; pre-treat. HC-3 1 μg ICV, after treatment 45 min",15.5 ± 1.9° sec
same,Hot plate Licking latency,"mice; pre-treat. HC-3 1 μg ICV, before treatment",22.0 ± 1.1^ sec
same,Hot plate Licking latency,"mice; pre-treat. Naloxone 1 mg/kg, after treatment 15 min",22.3 ± 1.9 s
same,Hot plate Licking latency,"mice; pre-treat. Naloxone 1 mg/kg, after treatment 30 min",22.1 ± 2.0 s
same,Hot plate Licking latency,"mice; pre-treat. Naloxone 1 mg/kg, after treatment 45 min",20.6 ± 1.2^ sec
same,Hot plate Licking latency,"mice; pre-treat. Naloxone 1 mg/kg, before treatment",22.6 ± 0.6 s
same,Hot plate Licking latency,"mice; pre-treat. Pirenzepine 0.1 μg ICV, after treatment 15 min",16.5 ± 1.8° sec
same,Hot plate Licking latency,"mice; pre-treat. Pirenzepine 0.1 μg ICV, after treatment 30 min",14.3 ± 2.0° sec
same,Hot plate Licking latency,"mice; pre-treat. Pirenzepine 0.1 μg ICV, after treatment 45 min",17.1 ± 1.6° sec
same,Hot plate Licking latency,"mice; pre-treat. Pirenzepine 0.1 μg ICV, before treatment",21.6 ± 1.3^ sec
same,Hot plate Licking latency,"mice; pre-treat. S-(−)-ET-126 0.1 μg ICV, after treatment 15 min",15.8 ± 2.2° sec
same,Hot plate Licking latency,"mice; pre-treat. S-(−)-ET-126 0.1 μg ICV, after treatment 30 min",16.9 ± 2.3° sec
same,Hot plate Licking latency,"mice; pre-treat. S-(−)-ET-126 0.1 μg ICV, after treatment 45 min",15.8 ± 1.8° sec
same,Hot plate Licking latency,"mice; pre-treat. S-(−)-ET-126 0.1 μg ICV, before treatment",22.9 ± 1.3^ sec
same,Hot plate Licking latency,"mice; pre-treat. physiological solution 10 ml/kg, after treatment 15 min",22.6 ± 1.3 s
same,Hot plate Licking latency,"mice; pre-treat. physiological solution 10 ml/kg, after treatment 30 min",22.5 ± 1.3 s
same,Hot plate Licking latency,"mice; pre-treat. physiological solution 10 ml/kg, after treatment 45 min",22.9 ± 1.6^ sec
same,Hot plate Licking latency,"mice; pre-treat. physiological solution 10 ml/kg, before treatment",21.8 ± 1.1 s
same,Hot plate Licking latency,"Male Swiss Webster mice; 3 mg/ml in drinking water, after 7 days treatment",17.8 ± 2.3 s
same,Hot plate Licking latency,"Male Swiss Webster mice; 3 mg/ml in drinking water, after 14 days treatment",18.8 ± 2.5 s
same,Hot plate Licking latency,"Male Swiss Webster mice; 3 mg/ml in drinking water, before treatment",13.8 ± 0.8 s
same,analgesic effect in hot-plate test,"Male Swiss Webster mice; 30 mg/kg SC, acute and 30 mg/kg BID SC for 7 days",had no analgesic effect
same,antinociceptive effect in hot-plate test,Male Swiss Webster mice; 100 mg/kg BID SC for 7 days,statistically significant antinociceptive effect
same,antinociceptive effect in hot-plate test,Male Swiss Webster mice; 100 mg/kg BID administered for 14 days,the test failed to be statistically significant
same,pain threshold in hot-plate test,Male Swiss Webster mice; 1-8 hours from one single administration of 100 mg/kg SC,did not affect the pain threshold
same,Hot plate Licking latency,"Male Swiss Webster mice; 7-day sub-chronic treatment SC 30 mg/kg BID, 15 min after treatment",16.3 ± 2.1 s
same,Hot plate Licking latency,"Male Swiss Webster mice; 7-day sub-chronic treatment SC 30 mg/kg BID, 30 min after treatment",17.3 ± 1.9 s
same,Hot plate Licking latency,"Male Swiss Webster mice; 7-day sub-chronic treatment SC 30 mg/kg BID, 45 min after treatment",15.2 ± 1.5 s
same,Hot plate Licking latency,"Male Swiss Webster mice; 7-day sub-chronic treatment SC 30 mg/kg BID, before treatment",15.8 ± 1.3 s
same,Hot plate Licking latency,"Male Swiss Webster mice; 7-day sub-chronic treatment SC 100 mg/kg BID, 15 min after treatment",22.1 ± 1.8^ sec
same,Hot plate Licking latency,"Male Swiss Webster mice; 7-day sub-chronic treatment SC 100 mg/kg BID, 30 min after treatment",22.5 ± 1.9^ sec
